These results are taken from patent US20030225007A1, “Sulfonamide derivatives of 3-substituted imidazol[1,2-d]-1,2,4-thiadiazoles and 3-substituted-[1,2,4] thiadiazolo[4,5-a] benzimidazole as inhibitors of fibrin cross-linking and transglutaminases” (Apotex Inc., priority 2002, published 2003).

Structures are written as SMILES.

The target of the test is T1, Guinea pig liver TGase (Cavia cutleri, UniProt P08587).
T1 construct: Guinea pig liver TGase; from tissue; host or cells: guinea pig liver
T1 sequence (P08587 2-690): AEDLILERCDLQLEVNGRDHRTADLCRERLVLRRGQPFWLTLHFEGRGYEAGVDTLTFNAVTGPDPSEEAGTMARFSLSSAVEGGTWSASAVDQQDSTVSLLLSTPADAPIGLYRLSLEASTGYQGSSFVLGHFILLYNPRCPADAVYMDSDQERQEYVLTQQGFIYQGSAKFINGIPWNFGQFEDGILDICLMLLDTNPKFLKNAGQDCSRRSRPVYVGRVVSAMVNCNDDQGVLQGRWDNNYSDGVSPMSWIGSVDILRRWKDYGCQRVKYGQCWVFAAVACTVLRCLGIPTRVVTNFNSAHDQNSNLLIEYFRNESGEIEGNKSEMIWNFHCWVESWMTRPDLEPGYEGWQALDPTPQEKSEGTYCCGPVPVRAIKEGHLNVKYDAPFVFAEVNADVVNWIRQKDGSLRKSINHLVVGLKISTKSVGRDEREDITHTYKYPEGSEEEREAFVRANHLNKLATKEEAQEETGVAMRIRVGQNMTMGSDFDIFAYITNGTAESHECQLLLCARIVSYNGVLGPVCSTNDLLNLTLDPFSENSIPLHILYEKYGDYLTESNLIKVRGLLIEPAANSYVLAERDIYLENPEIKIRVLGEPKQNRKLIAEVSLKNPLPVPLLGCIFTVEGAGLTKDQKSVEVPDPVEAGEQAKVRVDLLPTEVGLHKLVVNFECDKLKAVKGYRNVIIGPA
As to the kind of experiment: Enzyme selectivity: inactivation of tissue type transglutaminase. As to conditions: TGAse IC50, Guinea pig liver TGase; 5-min incubation at 37° C. in the absence of substrate. It counts as biochemical. How it is done: Enzyme selectivity . Inactivation of tissue type transglutaminase: Inhibitor solution in DMSO (5 μL) was added to 250 mM Tris-Cl pH 7.5 containing 40 mM CaCl2 and 1 mM EDTA in a final volume of 42 μL. Guinea pig liver TGase (3 μL, 2.5 mg/mL in 5 mM Tris-HCl pH 7.5, 2 mM EDTA) was added and the mixture was incubated for 5 min. at 37° C.
An assay mixture composed of 50 mM Tris-Cl, pH 8.0, 10 mM CaCl2, 1 mM EDTA, 0.1% poly(ethylene glycol) (app. MW=1000) and 20 μM monodansylcadaverine was prepared in a spectrofluorimetric cell in a final volume of 2952 μL. Dimethylcasein (8 μL, 1% in 50 mM sodium phosphate pH 7.5) was added and the mixture was incubated at 37° C. for a few minutes. To assay the residual enzyme activity, 40 μL of the solution containing the enzyme and the inhibitor was transferred to the assay mixture. The covalent incorporation of monodansylcadaverine into casein was monitored by an increase in fluorescence at λexc=360 nm and λem=500 nm, as previously described ((Curtis, C. G.; Lorand, L. Methods Enzymol. 1976, 45, 177-191). To determine uninhibited enzyme activity, DMSO was used in place of inhibitor solution in the above assay. IC50 values were determined by plotting the percent of remaining enzyme activity against logarithm of inhibitor concentration. IC50 is defined here as inhibitor concentration resulting in 50% enzyme inactivation after 5-min incubation of the enzyme with the inhibitor in the absence of the substrate. Second order rate constants for inactivation were determined using method described by Kitz and Wilson (Kitz, R.; Wilson, I. J.Biol.Chem. 1962,237, 3245).

In turn, `O=S(=O)(NCCCCCCNc1nsc2nccn12)c1cccc2ccccc12` [1-naphthyl, N-[6-(imidazo[1,2-d][1,2,4]thiadiazol-3-ylamino)hexyl]naphthalene-1-sulfonamide] showed an IC50 of 23 µM.

In turn, `O=S(=O)(Cc1ccccc1)NCCCCCCNc1nsc2nccn12` [2 / CH2Ph, N-[6-(imidazo[1,2-d][1,2,4]thiadiazol-3-ylamino)hexyl]-1-phenylmethanesulfonamide] displayed an IC50 of 27 µM.

`O=S(=O)(NCCCCCCNc1nsc2nccn12)c1ccc(F)cc1F` [2,4-diF-Ph, 2,4-difluoro-N-[6-(imidazo[1,2-d][1,2,4]thiadiazol-3-ylamino)hexyl]benzenesulfonamide] showed an IC50 of 23 µM.

As to `O=S(=O)(NCCCCCCNc1nsc2nccn12)c1ccc(OC(F)(F)F)cc1` [4-OCF3-Ph, N-[6-(imidazo[1,2-d][1,2,4]thiadiazol-3-ylamino)hexyl]-4-trifluoromethoxybenzenesulfonamide], the concentration for half-maximal inhibition (IC50) stood at 31 µM.

In turn, `O=C(O)CN(CCCCCCNS(=O)(=O)c1ccccc1[N+](=O)[O-])c1nsc2nccn12` [H / CH2CO2H / 2-NO2-Ph, N-imidazo[1,2-d][1,2,4]thiadiazol-3-yl-N-(6-{[(2-nitrophenyl)sulfonyl]amino}hexyl)glycine] registered an IC50 of 17 µM.
